Experiment [1] relates to FGF1 transcript in NIH 3T3 and Swiss 3T3 cells. Kind of experiment: Nuclear run-on analysis of FGF1 transcription. Format: cell-based, murine. The method, then: Approximately either 1×10^7 Swiss or NIH 3T3 cells were harvested and washed using ice-cold 50 mM sodium phosphate buffer, pH 7.0 containing 15 mM NaCl. Cell pellets were lysed in 4 ml of ice-cold 10 mM Tris-HCl, pH 7.5, containing 3 mM CaCl2, 3 mM MgCl2, 10 mM NaCl, and 0.5% NP-40. The nuclear pellet was resuspended in glycerol storage buffer (50 mM Tris-HCl, pH 8.3 containing 40% glycerol, 5 mM MgCl2 and 0.1 mM EDTA), the nuclei were snap frozen, and stored in liquid nitrogen. For run-on transcription, 200 μl aliquots of the frozen nuclei were added to 200 μl of reaction buffer (10 mM Tris-HCl, pH 8.3 containing 5 mM MgCl2, 300 mM KCl, 5 mM DTT, 1 mM each of ATP, CTP, and GTP, 40 units of RNase inhibitor and 100 μCi of [^32P]UTP (800 Ci/mmol; Amersham), and incubated at 30° C. for 30 minutes. The mixture was treated with 100 units of RNase-free DNase I for 30 minutes at 30° C. and then incubated with 400 μl of 20 mM Tris-HCl, pH 7.5, containing 2% SDS, 10 mM EDTA, […] proteinase K for 30 minutes at 42° C. Following phenol/CHCl3 extraction, the labelled transcripts were precipitated with isopropanol and dissolved in 50 μl of 10 mM TES, pH 7.5, containing 10 mM EDTA and 0.2% SDS. Linearized plasmid constructs (0.4 μg/dot) containing either the fgfl or gapdh cDNA were alkali denatured and immobilized onto a Hybond-N^+ membrane (Amersham). Hybridization was performed in 1 ml of ULTRA Hyb (Ambion), with 5×10^6 cpm of radiolabeled RNA and yeast RNA (10 μg/ml) for 18 hours with shaking at 50° C. Membranes were washed twice with washing buffer (2×SSC containing 0.1% SDS) at 50° C. and analyzed using a phosphoimager (Molecular Dynamics).

Experiment [2] has as its system Swiss 3T3 cells expressing a dominant-negative FGFR1 mutant. Kind of experiment: DNA synthesis assay, (3H)-thymidine autoradiography. Format: cell-based, murine. As to conditions: 10 μg/ml α-thrombin. Here is the method:
A combination of (^3H)-thymidine autoradiography and immunohistochemistry was used to evaluate the levels of DNA synthesis in Swiss 3T3 cells expressing a dominant-negative FGFR1 mutant. Swiss 3T3 cells were plated at 50% confluency on glass coverslips precoated with fibronectin (10 μg/cm^2) for 24 hours. The cells were transfected with the pCS2 vector expressing a dominant-negative X. laevis FGFR1 deletion mutant lacking the FGFR1 intracellular domain (a gift from Dr. R. Friesel) using the Fugene 6 reagent (Roche). After 24 hours, the medium was changed to DMEM containing 0.25% BCS and following a 48 hour incubation in low BCS, the cells were stimulated with either 10 μg/ml of α-thrombin, 10% BCS or 10 ng/ml of recombinant FGF1 plus 10 units/ml of heparin. After stimulation for 24 hours, (^3H)-thymidine (NEN; 1 μCi/ml) was added to the medium and cells were incubated for 12 hours and fixed with 4% neutral formaldehyde. […] The percentage of (^3H)-labeled nuclei among the dnFGFR1-positive and dnFGFR1-negative cells was quantitated using an inverted Olympus microscope.
Thus, a dominant-negative (dn) FGFR1 construct was expressed in Swiss 3T3 cells and their proliferative index measured in the presence and absence of exogenous thrombin.

Experiment [3] addresses T1, Delta1 (Homo sapiens, UniProt O00548).
T1 construct: made in house
T1 sequence (O00548 18-723): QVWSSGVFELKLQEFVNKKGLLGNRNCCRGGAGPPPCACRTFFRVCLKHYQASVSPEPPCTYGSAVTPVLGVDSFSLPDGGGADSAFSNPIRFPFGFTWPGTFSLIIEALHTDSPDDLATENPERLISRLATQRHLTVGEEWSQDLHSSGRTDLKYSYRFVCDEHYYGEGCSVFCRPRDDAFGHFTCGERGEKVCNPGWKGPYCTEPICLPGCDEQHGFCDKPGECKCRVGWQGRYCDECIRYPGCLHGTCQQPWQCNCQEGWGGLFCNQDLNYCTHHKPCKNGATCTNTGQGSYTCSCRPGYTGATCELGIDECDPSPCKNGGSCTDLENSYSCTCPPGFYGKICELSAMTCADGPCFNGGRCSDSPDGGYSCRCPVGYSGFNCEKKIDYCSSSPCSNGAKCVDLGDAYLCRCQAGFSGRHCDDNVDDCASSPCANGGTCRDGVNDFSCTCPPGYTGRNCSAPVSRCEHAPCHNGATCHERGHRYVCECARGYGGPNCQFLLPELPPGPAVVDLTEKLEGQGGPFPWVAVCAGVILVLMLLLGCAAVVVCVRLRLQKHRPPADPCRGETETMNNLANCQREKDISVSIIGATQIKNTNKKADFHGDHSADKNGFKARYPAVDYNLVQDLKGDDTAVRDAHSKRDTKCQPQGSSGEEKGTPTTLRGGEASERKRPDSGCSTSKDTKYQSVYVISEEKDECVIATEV
Kind of experiment: Thrombin cleavage of in vitro translation product of Delta1. The experiment is classed as biochemical.

Experiment [4] relates to Notch-dependent CSL1 activity in full-length Jagged1 NIH 3T3 cell transfectants. Kind of experiment: Dual Luciferase Reporter Assay of CSL1-dependent transcription. The experiment is classed as cell-based, murine. On the technique in general: Reporter assays use an easily measured gene product as a stand-in for the process of interest.
The subject of experiment [5] is HEY and Deltex transcripts in NCSC populations. Kind of experiment: RT-PCR analyses of Notch down-stream effectors. The experiment is classed as cell-based. The source says: It is also interesting that sJ1 and sDl1 induce distinctive phenotypic outcomes. Whereas sJ1:Notch interactions enable stamatogenesis, sDl1:Notch associations lead to an immediate loss of neurogenic potential. […] Likewise, Delta1, but not Jagged1, is able to promote the in vitro development of human cord blood-derived progenitor cells with a T cell/natural killer cell phenotype (Jaleco et al., 2001, J. Exp. Med. 194:991-1002), and sJ1 is able to promote the clonal expansion of hematopoietic stem cells in vitro (Vas et al., 2004, J. Leukoc. Biol., in press). […] Thus, it appears that sJ1 and sDl1 induce different cell fate decisions in NCSC populations. […] Thus, without wishing to be bound by any particular theory, the levels of Notch signaling may be paramount in regulating the undifferentiated expansion of multipotential neural stem cells, and thrombin and/or sJ1, may be one of the key elements in this process that enable stamatogenesis to occur.

As for Thrombin, the “induction of FGF1 transcript” value in experiment [1] (10 μg/ml α-thrombin or 5 μM TRAP) was “able to induce”. Besides, in experiment [1] (after addition of thrombin), the “time at which FGF1 mRNA was initially detected” value turned out to be 15 min and the “time to plateau of FGF1 mRNA” value is at most 2 h. The “DNA synthesis frequency with dnFGFR1 expression” value in experiment [2] was “level consistent with a quiescent cellular phenotype”. Also, the “proteolytic modification of Delta1 translation product” value in experiment [3] is reported as “unable to proteolytically modify”. Moreover, the “effect on Notch-dependent CSL1 activity” value in experiment [4] is “reduce the level of Notch-dependent CSL1 activity in a dose-dependent manner”. Further, in experiment [4] (maximal attenuation by thrombin), the “CSL1-dependent transcription, of the control level” value was “approximately 75%”.
For “sJ1: Soluble Jagged1, amino acid residues from about 1 to 1067 (SEQ ID NO:3) of full-length Jagged1”, the “steady-state levels of HEY and Deltex transcripts” value in experiment [5] was “suppression”. For the same molecule, the “CSL1-dependent transcription, of the control level” value in experiment [4] (sJ1 expression (sJ1 NIH 3T3 cell transfectants)) is “approximately 25%”.

B1: sDl1: soluble non-transmembrane form of the Notch ligand Delta1 (protein)
chain: QVWSSGVFELKLQEFVNKKGLLGNRNCCRGGAGPPPCACRTFFRVCLKHYQASVSPEPPCTYGSAVTPVLGVDSFSLPDGGGADSAFSNPIRFPFGFTWPGTFSLIIEALHTDSPDDLATENPERLISRLATQRHLTVGEEWSQDLHSSGRTDLKYSYRFVCDEHYYGEGCSVFCRPRDDAFGHFTCGERGEKVCNPGWKGPYCTEPICLPGCDEQHGFCDKPGECKCRVGWQGRYCDECIRYPGCLHGTCQQPWQCNCQEGWGGLFCNQDLNYCTHHKPCKNGATCTNTGQGSYTCSCRPGYTGATCELGIDECDPSPCKNGGSCTDLENSYSCTCPPGFYGKICELSAMTCADGPCFNGGRCSDSPDGGYSCRCPVGYSGFNCEKKIDYCSSSPCSNGAKCVDLGDAYLCRCQAGFSGRHCDDNVDDCASSPCANGGTCRDGVNDFSCTCPPGYTGRNCSAPVSRCEHAPCHNGATCHERGHRYVCECARGYGGPNCQFLLPELPPGPAVVDLTEKLEGQGGPFPW
modifications: left off: small tags and cut ends
notes: soluble non-transmembrane form of the Notch ligand Delta1
For B1, the “steady-state levels of HEY and Deltex transcripts” value in experiment [5] is listed as “not”.
